pKi: −log10 of the molar value.

For orientation: pKi means the negative decadic logarithm of the Ki, by convention in mol/L. Read a low pKi as a high Ki.

The target in one assay is Synaptic vesicular amine transporter (Rattus norvegicus) (UniProt Q01827). The experiment in a line: Potency index, ratio of lobelane Ki to compound Ki for VMAT2 in rat striata vesicles homogenate.
Chain of Synaptic vesicular amine transporter (Rattus norvegicus) (Q01827 whole entry): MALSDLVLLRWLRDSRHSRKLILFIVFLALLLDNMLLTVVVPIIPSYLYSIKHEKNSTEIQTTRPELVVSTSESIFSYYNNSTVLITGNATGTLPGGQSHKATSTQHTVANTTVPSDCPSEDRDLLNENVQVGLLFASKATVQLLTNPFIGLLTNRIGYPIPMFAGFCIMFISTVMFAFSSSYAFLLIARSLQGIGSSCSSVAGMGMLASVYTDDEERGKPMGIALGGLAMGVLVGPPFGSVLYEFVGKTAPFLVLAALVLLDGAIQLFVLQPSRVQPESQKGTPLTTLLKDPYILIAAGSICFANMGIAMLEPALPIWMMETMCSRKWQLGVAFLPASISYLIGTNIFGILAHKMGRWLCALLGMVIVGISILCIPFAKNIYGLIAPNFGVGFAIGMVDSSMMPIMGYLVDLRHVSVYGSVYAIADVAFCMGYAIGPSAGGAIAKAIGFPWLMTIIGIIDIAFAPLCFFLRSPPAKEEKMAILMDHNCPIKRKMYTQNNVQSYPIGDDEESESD
As to `COc1ccccc1CCC1CCN(CCc2ccc(F)cc2)CC1`, the Ratio Ki was determined as 4.

Regarding `COc1cccc(CCN2CCC(CCc3ccccc3OC)CC2)c1`, the Ratio Ki stood at 4.

As to `COc1ccccc1CCC1CCN(CCc2ccccc2OC)CC1`, the Ratio Ki is 4.

For another assay, the target named is T1, Synaptic vesicular amine transporter (Rattus norvegicus, UniProt Q01827). The assay can be described thus: Displacement of [3H]DTBZ from VMAT2 in rat whole brain vesicles homogenate after 30 mins by liquid scintillation counting. The assay is classed as tissue-based. In general terms: Displacement assays read how much labelled ligand stays bound in the presence of the test substance.
T1 sequence (Q01827 whole entry): as above
With `COc1cccc(CCN2CCC(Cc3ccccc3)CC2)c1`, the pKi is 5.82.

In turn, `COc1ccc(CCN2CCC(Cc3ccccc3)CC2)cc1` showed a pKi of 5.72.

In the case of `COc1cccc(CCN2CCC(CCc3ccccc3)CC2)c1`, the pKi is 6.57.

`COc1ccc(CCC2CCN(CCc3ccc(OC)cc3)CC2)cc1` had a pKi of 5.60.

For `COc1ccccc1CCN1CCC(Cc2ccccc2)CC1`, the pKi was 5.55.

In turn, `COc1ccccc1CCN1CCC(CCc2ccccc2)CC1` gave a pKi of 6.59.

Another assay deals with T1, Synaptic vesicular amine transporter. The experiment in a line: Inhibition of [3H]DA uptake at VMAT2 in rat striata vesicles homogenate after 8 mins by liquid scintillation counting.
`c1ccc(CCC2CCN(CCc3ccccc3)CC2)cc1`: the pKi is 6.92.

In a further assay the target is Synaptic vesicular amine transporter (Rattus norvegicus) (UniProt Q01827). The experiment in a line: Potency index, ratio of lobelane Ki to compound Ki for VMAT2 in rat whole brain vesicles homogenate.
Consider `COc1cccc(CCN2CCC(CCc3ccccc3OC)CC2)c1`, for which the Ratio Ki amounted to 5.

`COc1ccccc1CCC1CCN(CCc2ccccc2OC)CC1`: the Ratio Ki amounted to 5.

Values taken from ChEMBL document CHEMBL3808320, “1,4-Diphenalkylpiperidines: A new scaffold for the design of potent inhibitors of the vesicular monoamine transporter-2” (Bioorg Med Chem Lett, 2016).
